Reference: patent US11518764B2, “Substituted heteroaryls as inhibitors of the BCL6 BTB domain protein-protein interaction” (Ontario Institute for Cancer Research (OICR), priority 2018, dated 2022)
Where two headings read alike, the source gives them in different places.

Tests used:
BCL6 BTB domain = BCL6 BTB domain (Homo sapiens (Human), UniProt P41182); experiment: Surface plasmon resonance (SPR) assay; assay type: binding; conditions: BCL6 BTB domain captured on SA chip, single cycle kinetics
[1] = test system: BCL6 reporter construct (3xBCL6-TK-Luc) in SuDHL4 cells; experiment: Cell-based luciferase assay
In short: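 SuDHL4 cells stably carrying a 3×BCL6-site TK-promoter firefly luciferase reporter, seeded at 15,000 cells/well, were dosed over a 10-point range (top 10 uM) and grown two days at 37 °C, 5% CO2. Luminescence then read after adding neolite reagent at room temperature.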

Karpas422 cells = experiment: Tumor cell growth inhibition assay; assay type: cell-based
In short: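 Karpas422 cells (2,000/well) in Alpha-MEM with 10% FBS dosed across 10 concentrations (top 5 uM) and grown six days at 37° C., 5% CO2. Viability read as ATPlite luminescence.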

[2] = Homo sapiens, SU-DHL-4, 48 h, read-out: Luciferase-Assay EC50, uM), SuDHL4-3xBCL6-TK-Luc cells, two days, high dose 10 uM
[3] = Homo sapiens, KARPAS-422, 144 h, read-out: Tumor Growth Inhibition in Karpas-422 (IC50, uM), Karpas422 cells, six days, ATPlite
[4] = read-out: Luciferase-Assay EC50, SuDHL4-3xBCL6-TK-Luc cells, two days, high dose 10 uM
[5] = read-out: Tumor Growth Inhibition in Karpas-422 (IC50), Karpas422 cells, six days, ATPlite

Structure (SMILES) | Kd (BCL6 BTB domain) [nM] | EC50 [1, 2] [µM] | IC50 (Karpas422 cells; [3]) [µM] | EC50 [1, 4] [µM] | IC50 (Karpas422 cells; [5]) [µM]
Cc1nc2c(c(-c3cc(C(N)=O)c(O)c4c3OCO4)cn2CC(=O)Nc2cc(N3CCNC[C@@H]3C)nc(F)c2Cl)c(=O)n1C [Compound I-230] | 2.32 | 0.0625 | 0.0157 |  | 
CN1CCN(c2cc(NC(=O)Cn3cc(-c4cc(C(N)=O)c(O)c(F)c4F)c4c(=O)n(C)cnc43)c(Cl)cn2)CC1 [Compound I-231] | 89.9 | 1.47 | 1.18 |  | 
Cc1nc2c(c(-c3cc(Cl)c(O)c(C(N)=O)c3)cn2CC(=O)Nc2cc(N3CC(C)(C)N(C)C(C)(C)C3)ncc2Cl)c(=O)n1C [Compound I-232] | 11.8 | 0.267 | 0.222 |  | 
C[C@H]1COCCN1c1cc(NC(=O)Cn2cc(-c3cc(F)c(O)c(C(N)=O)c3)c3c(=O)n(C)c(C(F)(F)F)nc32)c(Cl)cn1 [Compound I-234] | 48.8 | 0.441 | 0.255 |  | 
C[C@H]1COCCN1c1cc(NC(=O)Cn2cc(-c3cc(Cl)c(O)c(C(N)=O)c3)c3c(=O)n(C)cnc32)c(Cl)c(F)n1 [Compound I-235] | 14 | 0.139 | 0.138 |  | 
Cn1cnc2c(c(-c3cc(Cl)c(O)c(C(N)=O)c3)cn2CC(=O)Nc2cc(N3CCN4C(=O)CCC4C3)ncc2Cl)c1=O (stereo not drawn) [Compound I-236] | 16.6 | 0.739 | 0.385 |  | 
Cn1cnc2c(c(-c3cc(Cl)c(O)c(C(N)=O)c3)cn2CC(=O)Nc2cc(N3CCN4C(=O)OCC4C3)ncc2Cl)c1=O (stereo not drawn) [Compound I-237] | 17.6 | 1.04 | 1.25 |  | 
CN1CC2CN(c3cc(NC(=O)Cn4cc(-c5cc(Cl)c(O)c(C(N)=O)c5)c5c(=O)n(C)cnc54)c(Cl)cn3)CCN2C1=O (stereo not drawn) [Compound I-238] | 12.1 | 0.588 | 0.291 |  | 
C[C@H]1COCCN1c1cc(NC(=O)Cn2cc(-c3cc(Cl)c(O)c(C(N)=O)c3)c3c(=O)n(C)cnc32)c(F)cn1 [Compound I-241] | 19.5 | 0.483 | 0.281 |  | 
NC(=O)c1cc(-c2cn(CC(=O)Nc3cc(N4CC5CCC(C4)O5)ncc3Cl)c3nc[nH]c(=O)c23)cc(Cl)c1O [Compound I-242] | 5.01 | 0.483 | 0.312 |  | 
Cc1nc2c(c(-c3cc(F)c(O)c(C(N)=O)c3)cn2CC(=O)Nc2cc(N3CC(C)(C)NC(C)(C)C3)ncc2Cl)c(=O)n1C [Compound I-243] | 12.4 | 0.19 | 0.134 |  | 
Cn1cnc2c(c(-c3cc(Cl)c(O)c(C(N)=O)c3)cn2CC(=O)Nc2cc(N3CCOC4CC43)ncc2Cl)c1=O (stereo not drawn) [Compound I-244] | 8.46 | 0.279 | 0.169 |  | 
Cn1cnc2c(c(-c3cc(Cl)c(O)c(C(N)=O)c3)cn2CC(=O)Nc2cc(N3CCOCC34CCC4)ncc2Cl)c1=O [Compound I-245] | 20.4 | 0.245 | 0.182 |  | 
Cn1cnc2c(c(-c3cc(Cl)c(O)c(C(N)=O)c3)cn2CC(=O)NC2CCCCC2F)c1=O (stereo not drawn) [Compound I-246] | 1320 | 10 | 10 |  | 
C[C@H]1COCCN1c1cc(NC(=O)Cn2cc(-c3cc(Cl)c(O)c(C(N)=O)c3)c3c(=O)n(C)c(-c4ccccc4)nc32)c(Cl)cn1 [Compound I-248] | 326 | 11.9 | 0.29 |  | 
Cc1nc2c(c(-c3cc(C(N)=O)c(O)c(F)c3F)cn2CC(=O)Nc2cc(N3CCOC[C@@H]3C)ncc2Cl)c(=O)n1C [Compound I-249] | 77.3 | 0.689 | 0.736 |  | 
Cc1nc2c(c(-c3cc(F)c(O)c(C(N)=O)c3)cn2CC(=O)Nc2cc(N3CC(C)(C)N(C)C(C)(C)C3)ncc2Cl)c(=O)n1C [Compound I-250] | 16.3 | 0.0822 | 0.0902 |  | 
Cn1cnc2c(c(-c3cc(Cl)c(O)c(C(N)=O)c3)cn2CC(=O)Nc2cc(N3CCOC(C(F)(F)F)C3)ncc2Cl)c1=O (stereo not drawn) [Compound I-256] | 211 |  |  | 0.509 | 0.274
Cn1cnc2c(c(-c3cc(Cl)c(O)c(C(N)=O)c3)cn2CC(=O)Nc2cc(N3CCOC(C(F)(F)F)C3)ncc2Cl)c1=O (stereo not drawn) [Compound I-258] | 100 |  |  | 0.549 | 0.491

Structure (SMILES) | Kd (BCL6 BTB domain) [nM] | EC50 [1, 2] [µM] | IC50 (Karpas422 cells; [3]) [µM] | EC50 [1, 4] [µM] | IC50 (Karpas422 cells; [5]) [µM]
C[C@@H]1COC[C@@H](C)N1c1cc(NC(=O)Cn2cc(-c3cc(Cl)c(O)c(C(N)=O)c3)c3c(=O)n(C)cnc32)c(Cl)cn1 [Compound I-259] | 38.5 | 0.214 | 0.652 |  | 
C[C@H]1CN(C)CCN1c1cc(NC(=O)Cn2cc(-c3cc(Cl)c(O)c(C(N)=O)c3)c3c(=O)n(C)c(-c4ccccc4)nc32)c(Cl)cn1 [Compound I-260, (S)-3-chloro-5-(7-(2-((5-chloro-2-(2,4-dimethylpiperazin-1-yl)pyridin-4-yl)amino)-2-oxoethyl)-3-methyl-4-oxo-2-phenyl-4,7-dihydro-3H-pyrrolo[2,3-d]pyrimidin-5-yl)-2-hydroxybenzamide] | 58.8 | 10 | 0.238 |  | 
C[C@H]1CN(C)CCN1c1cc(NC(=O)Cn2cc(-c3cc(Cl)c(O)c(C(N)=O)c3)c3c(=O)[nH]c(-c4ccccc4)nc32)c(Cl)cn1 [Compound I-261, (S)-3-chloro-5-(7-(2-((5-chloro-2-(2,4-dimethylpiperazin-1-yl)pyridin-4-yl)amino)-2-oxoethyl)-4-oxo-2-phenyl-4,7-dihydro-3H-pyrrolo[2,3-d]pyrimidin-5-yl)-2-hydroxybenzamide] | 39.8 | 0.65 | 0.225 |  | 
C[C@H]1COCCN1c1cc(NC(=O)Cn2cc(-c3cc(Cl)c(O)c(C(N)=O)c3)c3c(=O)n(C)c(Cl)nc32)c(Cl)cn1 [Compound I-262] | 22.8 | 0.468 | 0.389 |  | 
C[C@@H]1COC[C@H](C)N1c1cc(NC(=O)Cn2cc(-c3cc(Cl)c(O)c(C(N)=O)c3)c3c(=O)n(C)cnc32)c(Cl)cn1 [Compound I-264] | 30.3 | 0.347 | 0.376 |  | 
C[C@H]1CN(C)CCN1c1cc(NC(=O)Cn2cc(-c3cc(C(N)=O)c(O)c(Cl)c3F)c3c(=O)n(C)c(C(F)(F)F)nc32)c(Cl)cn1 [Compound I-267] | 582 | 2.27 | 3.79 |  | 
CCN(C)c1nc2c(c(-c3cc(Cl)c(O)c(C(N)=O)c3)cn2CC(=O)Nc2cc(N3CCOC[C@@H]3C)ncc2Cl)c(=O)n1C [Compound I-269, (S)-3-chloro-5-(7-(2-((5-chloro-2-(3-methylmorpholino)pyridin-4-yl)amino)-2-oxoethyl)-2-(ethyl(methyl)amino)-3-methyl-4-oxo-4,7-dihydro-3H-pyrrolo[2,3-d]pyrimidin-5-yl)-2-hydroxybenzamide] | 157 | 8.55 | 1.7 |  | 
C[C@H]1COCCN1c1cc(NC(=O)Cn2cc(-c3cc(Cl)c(O)c(C(N)=O)c3)c3c(=O)n(C)c(N4CCC4)nc32)c(Cl)cn1 [Compound I-270, (S)-5-(2-(azetidin-1-yl)-7-(2-((5-chloro-2-(3-methylmorpholino)pyridin-4-yl)amino)-2-oxoethyl)-3-methyl-4-oxo-4,7-dihydro-3H-pyrrolo[2,3-d]pyrimidin-5-yl)-3-chloro-2-hydroxybenzamide] | 63 | 2.31 | 3.82 |  | 
CC(C)N1CCN(c2cc(NC(=O)Cn3cc(-c4cc(Cl)c(O)c(C(N)=O)c4)c4c(=O)n(C)cnc43)c(Cl)cn2)[C@@H](C)C1 [Compound I-271] | 16 | 0.208 | 0.22 |  | 
Cc1nc2c(c(-c3cc(Cl)c(O)c(C(N)=O)c3)cn2CC(=O)Nc2cc(N3CCN(C(C)C)C[C@@H]3C)ncc2Cl)c(=O)n1C [Compound I-272] | 14.8 | 0.133 | 0.145 |  | 
Cn1cnc2c(c(-c3cc(F)c(O)c(C(N)=O)c3)cn2CC(=O)Nc2cc(N3CCCC3)ncc2Cl)c1=O [Compound I-273] | 5.31 | 0.416 | 0.251 |  | 
CC(C)N1CCN(c2cc(NC(=O)Cn3cc(-c4cc(Cl)c(O)c(C(N)=O)c4)c4c(=O)n(C)c(C(F)(F)F)nc43)c(Cl)cn2)[C@@H](C)C1 [Compound I-274] | 138 | 0.669 | 0.332 |  | 
Cn1cnc2c(c(-c3cc(F)c(O)c(C(N)=O)c3)cn2CC(=O)Nc2cc(N3CC4COCC4C3)ncc2Cl)c1=O (stereo not drawn) [Compound I-275] | 4.76 | 0.209 | 0.137 |  | 
CN1CCC2CN(c3cc(NC(=O)Cn4cc(-c5cc(F)c(O)c(C(N)=O)c5)c5c(=O)n(C)cnc54)c(Cl)cn3)CC21 (stereo not drawn) [Compound I-276] | 33.1 | 1.1 | 0.355 |  | 
Cn1cnc2c(c(-c3cc(Cl)c(O)c(C(N)=O)c3)cn2CC(=O)Nc2cc(N3CCOC4COCC43)ncc2Cl)c1=O (stereo not drawn) [Compound I-277] | 21 | 0.418 | 0.255 |  | 
Cn1cnc2c(c(-c3cc(Cl)c(O)c(C(N)=O)c3)cn2CC(=O)Nc2cc(N3CC4CCC(F)(F)C4C3)ncc2Cl)c1=O (stereo not drawn) [Compound I-278] | 42.5 | 0.622 | 1.13 |  | 
Cn1cnc2c(c(-c3cc(Cl)c(O)c(C(N)=O)c3)cn2CC(=O)Nc2cc(N3C4CCC3COC4)ncc2Cl)c1=O [Compound I-279] | 10.2 | 0.468 | 0.197 |  | 
Cn1cnc2c(c(-c3cc(Cl)c(O)c(C(N)=O)c3)cn2CC(=O)Nc2cc(N3CCOC4CCCC43)ncc2Cl)c1=O (stereo not drawn) [Compound I-280] | 101 | 1.4 | 0.821 |  | 
